In ChEMBL document CHEMBL2331328, “Synthetic approaches to DNMT inhibitor SGI-1027 and effects on the U937 leukemia cell line” (Bioorg Med Chem Lett, 2013) one finds Activity and inhibition data, which are given here for two compounds.

Assay [1] has as its system U-937. The assay can be described thus: Cell cycle arrest in human U937 cells at 5 to 50 uM after 30 hrs by FACS analysis. Type of assay: functional, cell-based.
Assay [2] concerns the target DNA (cytosine-5)-methyltransferase 1 (Homo sapiens) (UniProt P26358). The assay can be described thus: Inhibition of human DNMT1 using AdoMet and poly dI-dC at 50 uM after 2 hrs by radioactive assay.
Assay [3] relates to U-937. The assay can be described thus: Induction of apoptosis in human U937 cells assessed as accumulation at pre-G1 phase after 30 hrs by FACS analysis. It is filed as functional, cell-based.

Active and inactive are the calls of the source. The rule behind the calls is not given here.

Chain of DNA (cytosine-5)-methyltransferase 1 (Homo sapiens) (P26358 whole entry): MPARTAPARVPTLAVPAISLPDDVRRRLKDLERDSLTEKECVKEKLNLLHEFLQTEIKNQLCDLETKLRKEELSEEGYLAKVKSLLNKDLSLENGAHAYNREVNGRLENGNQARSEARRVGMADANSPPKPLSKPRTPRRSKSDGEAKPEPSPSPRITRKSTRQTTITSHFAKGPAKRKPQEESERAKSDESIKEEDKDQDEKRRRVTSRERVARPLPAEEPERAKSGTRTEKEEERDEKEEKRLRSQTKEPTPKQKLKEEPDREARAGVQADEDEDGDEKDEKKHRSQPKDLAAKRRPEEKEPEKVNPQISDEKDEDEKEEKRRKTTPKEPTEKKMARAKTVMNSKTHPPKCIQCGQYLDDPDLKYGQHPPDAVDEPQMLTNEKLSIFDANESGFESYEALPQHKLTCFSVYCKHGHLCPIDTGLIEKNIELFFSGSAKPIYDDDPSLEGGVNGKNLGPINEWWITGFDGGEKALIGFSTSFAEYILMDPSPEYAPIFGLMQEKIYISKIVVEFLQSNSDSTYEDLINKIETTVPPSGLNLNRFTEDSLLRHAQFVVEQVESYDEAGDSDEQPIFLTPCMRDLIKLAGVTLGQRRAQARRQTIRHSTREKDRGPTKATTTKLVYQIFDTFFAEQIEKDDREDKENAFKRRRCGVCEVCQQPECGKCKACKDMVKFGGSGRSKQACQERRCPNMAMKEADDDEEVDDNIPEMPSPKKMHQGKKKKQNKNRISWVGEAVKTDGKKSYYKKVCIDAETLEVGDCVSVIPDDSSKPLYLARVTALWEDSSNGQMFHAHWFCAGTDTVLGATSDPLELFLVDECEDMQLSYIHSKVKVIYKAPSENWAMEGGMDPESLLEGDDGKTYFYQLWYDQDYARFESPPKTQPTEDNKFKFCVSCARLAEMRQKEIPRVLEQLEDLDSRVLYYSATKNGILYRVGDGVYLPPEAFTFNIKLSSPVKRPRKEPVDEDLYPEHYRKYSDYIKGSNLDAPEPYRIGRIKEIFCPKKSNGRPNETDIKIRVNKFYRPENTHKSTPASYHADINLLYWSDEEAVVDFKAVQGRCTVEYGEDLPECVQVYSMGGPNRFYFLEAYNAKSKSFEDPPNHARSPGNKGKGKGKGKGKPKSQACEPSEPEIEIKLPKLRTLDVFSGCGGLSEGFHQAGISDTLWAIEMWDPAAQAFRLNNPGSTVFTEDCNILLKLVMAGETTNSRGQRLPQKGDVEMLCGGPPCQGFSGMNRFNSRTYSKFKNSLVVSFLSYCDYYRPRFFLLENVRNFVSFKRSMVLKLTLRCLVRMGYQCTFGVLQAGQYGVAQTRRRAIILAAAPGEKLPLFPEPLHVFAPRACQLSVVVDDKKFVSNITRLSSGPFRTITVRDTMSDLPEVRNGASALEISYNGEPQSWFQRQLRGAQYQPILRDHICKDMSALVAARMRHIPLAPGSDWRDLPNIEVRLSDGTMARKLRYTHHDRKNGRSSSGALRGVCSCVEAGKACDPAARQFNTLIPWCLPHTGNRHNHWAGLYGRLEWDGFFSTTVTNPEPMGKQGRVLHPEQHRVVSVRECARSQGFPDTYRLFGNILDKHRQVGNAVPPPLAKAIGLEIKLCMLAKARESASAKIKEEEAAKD

As to `Cc1cc(Nc2ccc(NC(=O)c3ccc(Nc4ccnc5ccccc45)cc3)cc2)nc(N)n1`, the result in the assay with U-937 [1] was inactive. Further, the inhibition entry in assay [2] was “Active”. In addition, the Activity result with U-937 [3] is “Dose-dependent effect”.
Turning to `O=C(O)[C@H](Cc1c[nH]c2ccccc12)N1C(=O)c2ccccc2C1=O`, in assay [2], the inhibition entry was “Active”.
